According to patent US7138543B2, “Thiolalkyl benzoic acid derivatives” (Guilford Pharmaceuticals Inc., priority 2001, dated 2006):

Experiments:
[1] = system: rats with unilateral elevation of intraocular pressure; assay: Experimental rat glaucoma (IOP elevation, optic nerve fiber counting); type: in vivo; conditions: 8 week group
Description: Protective Effect of NAALADase Inhibitors in Experimental Rat Glaucoma
All experiments complied with the Association for Research in Vision and Ophthalmology Statement for the Use of Animals in Ophthalmic and Vision Research. 82 male Brown Norway rats (Rattus norvegicus), each weighing approximately 250 gm, were treated using procedures approved by the Animal Care Committee of the Johns Hopkins University School of Medicine. The rats were housed with a 12 hour light/12 hour dark cycle and fed ad libitum.
EXPERIMENTAL GLAUCOMA: Unilateral elevation of intraocular pressure (“IOP”) was produced in 56 rats by microinjection of hypertonic saline into episcleral veins, following procedures described in Morrison, J. et al., IOVS (March 1998) 39:526–531. Beginning on the day of IOP elevation, the rats were treated daily with intraperitoneal injections of either a vehicle (23 rats with 50 mM HEPES-buffered saline) or a NAALADase inhibitor (11 rats with 10 mg/kg of Compound A and 22 rats with 10 mg/kg of Compound B). 11 saline treated rats, 11 Compound A treated rats and 11 Compound B treated rats were sacrificed at 8 weeks, and the remaining rats at 12 weeks, after initial IOP elevation.
OPTIC NERVE COUNTING: The rats were sacrificed by exsanguination under deep pentobarbital anesthesia. They were perfused through the heart with 2% paraformaldehyde/2% glutaraldehyde in 0.1 M phosphate buffer, pH 7.2, and the eyes with attached optic nerves were removed. A cross-section of the optic nerve from both experimental (glaucoma or transection) and control eyes was removed 1.5 mm posterior to the globe, 1 mm in thickness, and post-fixed in 2% osmium tetroxide in buffer. These were processed into epoxy resin, sectioned at 1 micron and stained with toluidine blue.
The area of the optic nerve cross-section was measured by outlining its outer border at 10× magnification on an image analysis system (Universal Imaging Corp., Westchester, Pa.) with Synsys digital camera and Metamorph software. Three area measurements were taken and the mean value was determined. To measure the density and fiber diameter distributions, images were captured with a 100× phase contrast objective from 10 different areas of each nerve. These were edited to eliminate non-neural objects and the size of each axon internal to the myelin sheath (its minimum diameter) and the density of axons/square mm were calculated for each image and nerve. The mean density was multiplied by total nerve area to yield fiber number for each nerve. The total fiber number in glaucoma or transection nerves was compared to the normal, fellow eye of each rat to yield a percent loss value. The number of axons counted among the 10 images was an approximately 20% sample of the 80–90,000 axons in normal rat nerves. The person measuring axon number was masked to the protocol conducted on the nerves.

STZ-diabetic rats [2] = assay: Neuropathic pain in STZ model (Hargreaves thermal nociception); type: in vivo, Sprague-Dawley rats; conditions: 10 mg/kg i.p. daily, started 45 days post-STZ
Description: In vivo Assay of NAALADase Inhibitors on Neuropathic Pain in STZ Model
Male Sprague-Dawley rats (200–225 g) were rendered diabetic by intravenous administration of streptozotocin (“STZ”, 70 mg/kg in phosphate buffered saline). Diabetic animals were divided into five groups: one group receiving Compound A (10 mg/kg or 1 mg/kg), Compound D (10 mg/kg or 1 mg/kg) or vehicle. Another group of animals (non-STZ treated) served as non-diabetic controls. Drug/vehicle treatment was started in diabetic animals 45 days post-STZ administration. STZ-induced diabetic rats were tested for sensitivity to a heat source as soon as blood glucose levels rose to 320 mg/dl or above (30 days post STZ). The rats were then acclimated to a Hargreaves apparatus and thermal nociception was monitored using an infrared heat source directed into the dorsal surface of the hindpaw, and the time taken for the animal to remove its paw noted to the nearest 0.1 seconds (see Hargreaves et al., J. Biol. Chem. (1988) 263(36):19392–7 for a description of the experimental method). The intensity of the beam source was adjusted such that the mean latency for control animals (non-STZ treated) was approximately 10 seconds. Each animal was tested 8 times and the mean difference score (between mean non-diabetic control latency and mean diabetic latency) are graphically presented in FIGS. 7A and 7B.

transgenic G1H mice = assay: Onset of ALS in transgenic mice model of FALS; type: in vivo; conditions: for DISEASE ONSET: 50 mg/kg daily intraperitoneal
Description: Effect of NAALADase Inhibitors on Onset of ALS
The effect of NAALADase inhibitors on the onset of ALS was tested using the transgenic mice model of familial amyotrophic lateral sclerosis (“FALS”), which is detailed in Gurney, M., Annals of Neurology (1996) 39:147–157, and otherwise well known in the art. One month old transgenic G1H mice were treated with daily intraperitoneal injections of a vehicle (50 mM HEPES-buffered saline) or a NAALADase inhibitor (50 mg/kg Compound A). Clinical symptoms of the mice were monitored daily. The onset of clinical disease was scored by examining each mouse for its shaking of limbs when suspended in the air by its tail, cross spread of spinal reflexes, hindlimb paralysis, body weight and wheel running activity.

STZ-diabetic rats [3] = assay: Diabetic neuropathy in STZ model (motor and sensory nerve conduction velocity); type: in vivo
Description: In vivo Assay of NAALADase Inhibitors on Diabetic Neuropathy in STZ Model
Motor and sensory nerve conduction velocity was also measured in STZ-diabetic animals after 4, 8 and 12 weeks of treatment (see De Koning et al., supra, for a description of the experimental method). Briefly, stimulating needle electrodes were inserted close to the sciatic and tibial nerves with recording electrodes being placed subcutaneously over the distal foot muscles, in anesthetized rats.

## O=C(O)CCC(CP(=O)(O)Cc1c(F)c(F)c(F)c(F)c1F)C(=O)O (stereo not shown) [Compound A]
[1]; 10 mg/kg daily intraperitoneal
  FIBER NUMBER: 79156 ± 2436
[1]; positive value indicates fewer fibers in the glaucoma eye
  PERCENT DIFFERENCE in fiber number between glaucoma and normal eye: −1.82 ± 2.92%
STZ-diabetic rats [2]
  hyperalgesic response (withdrawal latency difference score): completely reversed
Transgenic G1H mice; Study 1
  DIFFERENCE in disease onset vs vehicle: 32
  DISEASE ONSET: 221 days
Transgenic G1H mice; Study 2
  DIFFERENCE in disease onset vs vehicle: 25
  DISEASE ONSET: 166 days
STZ-diabetic rats [3]; 10 mg/kg daily for 4, 8 and 12 weeks, FIGS. 9A and 9B
  motor and sensory nerve conduction velocities: tended to improve (increase) both motor and sensory nerve conduction velocities
STZ-diabetic rats [3]; 10 mg/kg daily, FIG. 9A
  treatment time at which significant improvement of motor nerve conduction velocity was observed: 12 weeks
STZ-diabetic rats [3]; 10 mg/kg daily, FIG. 9B
  treatment time at which significant improvement of sensory nerve conduction velocity was observed: 8 weeks
